# Results as given in PubChem BioAssay (NCI).
#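 Tested at 5 concentrations; 48 h exposure; 96-well plates; endpoints linearly interpolated, else capped at highest concentration. TGI: concentration producing complete growth inhibition.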
# Tests used:
# Test in all cases: DTP human tumour cell line panel, 48 h
# ACHN renal = tested on: ACHN renal
# HCC-2998 colon = tested on: HCC-2998 colon
# HCT-15 colon = tested on: HCT-15 colon
# MDA-MB-231 breast = tested on: MDA-MB-231 breast
# MOLT-4 leukemia = tested on: MOLT-4 leukemia
# NCI-H226 lung = tested on: NCI-H226 lung
# NCI-H23 lung = tested on: NCI-H23 lung
# NCI-H522 lung = tested on: NCI-H522 lung
# SF-268 CNS = tested on: SF-268 CNS
# SK-MEL-28 melanoma = tested on: SK-MEL-28 melanoma
# MDA-N = tested on: MDA-N
SMILES,TGI (ACHN renal),TGI (HCC-2998 colon),TGI (HCT-15 colon),TGI (MDA-MB-231 breast),TGI (MOLT-4 leukemia),TGI (NCI-H226 lung),TGI (NCI-H23 lung),TGI (NCI-H522 lung),TGI (SF-268 CNS),TGI (SK-MEL-28 melanoma),TGI (MDA-N)
C/C=C/c1cc2c(cc1O)CC[C@@H]1[C@@H]2CC[C@]2(C)[C@@H](O)CC[C@@H]12,15.5 µM,7.13 µM,18 µM,4.94 µM,15.8 µM,1.96 µM,4.62 µM,0.117 µM,21.5 µM,21.6 µM,
CCN(CC)CCNc1ccc2ncn3c4ccc(OC)cc4c(=O)c1c23,19 µM,13.7 µM,15.1 µM,,11 µM,13.7 µM,18.1 µM,21.4 µM,14.4 µM,28.4 µM,19.6 µM
O=C(NN1C(=O)CS(=O)(=O)C1c1ccc(Cl)c(Cl)c1)c1ccncc1 (stereo unspecified),,> 100 µM,> 100 µM,,> 71.8 µM,> 100 µM,> 100 µM,> 100 µM,> 100 µM,> 100 µM,
C=C1N(S(=O)(=O)c2ccc(C)cc2)C(=O)OCC12CCCC2,> 100 µM,> 100 µM,> 100 µM,> 100 µM,> 100 µM,> 100 µM,> 100 µM,> 100 µM,,> 100 µM,> 100 µM
CCOP(=O)(C/C=C/Cn1ncc(=O)[nH]c1=O)OCC,> 100 µM,> 100 µM,> 100 µM,> 100 µM,> 100 µM,> 100 µM,,> 100 µM,> 100 µM,> 100 µM,> 100 µM
CSc1c(C#N)c(=O)n(N)c2c1c(C)nn2-c1ccccc1,,> 100 µM,85.4 µM,57.9 µM,85.1 µM,70 µM,52.7 µM,> 100 µM,> 100 µM,> 100 µM,> 100 µM
O=c1[nH]c(=O)c2c([nH]1)[nH]c1ccc(Br)cc12,> 100 µM,> 100 µM,> 100 µM,> 100 µM,,> 100 µM,> 100 µM,> 100 µM,> 100 µM,,> 100 µM
C=C1CC(OC)(C(OC)C(=O)N[C@H]2OCO[C@H]3C2O[C@H](C[C@@H](COC)OC)C(C)(C)C3OC)O[C@H](C)[C@@H]1C (stereo partly specified),,,8.25 µM,,1.88 µM,7.73 µM,6.68 µM,,,3.45 µM,
C=C(C)[C@H]1CC[C@@]23O[C@@H]2[C@@H](C[C@@]2(C)CC(=O)[C@H](CC(=O)C1)O2)OC(=O)[C@@]12CC[C@H](C(=C)C)CC(=O)C[C@H]4O[C@](C)(CC4=O)C[C@@H](OC3=O)[C@@H]1O2,> 100 µM,> 100 µM,> 100 µM,> 100 µM,> 100 µM,> 100 µM,> 100 µM,> 100 µM,,> 100 µM,> 100 µM
C=C1CC[C@@H]2C13[C@@H]1[C@H](CC(=O)[C@@]23C)C1(C)C (stereo partly specified),> 100 µM,,> 100 µM,,> 100 µM,> 100 µM,> 100 µM,> 100 µM,> 100 µM,> 100 µM,
CCOC(=O)C1=C(C)N(c2ccc(Cl)cc2)C2(O)C=CC(=O)C3=C(O)c4ccccc4C(=O)C312 (stereo unspecified),16.4 µM,,14 µM,25 µM,8.65 µM,,25.4 µM,6.45 µM,6.86 µM,,18.2 µM
Cc1cc(C)c(NS(=O)c2cccc(C(F)(F)F)c2)c(C)c1 (stereo unspecified),> 100 µM,,> 100 µM,,> 100 µM,> 100 µM,> 100 µM,,> 100 µM,> 100 µM,> 100 µM
CCOC(=O)[C@@H]1[C@@H](c2ccccc2)N(C)O[C@@]1(c1ccccc1)C(F)(F)F,> 100 µM,,> 100 µM,> 100 µM,,> 100 µM,> 100 µM,> 100 µM,> 100 µM,> 100 µM,> 100 µM
CCN(CC)C(=O)CCn1cc(F)c(=O)[nH]c1=O,> 100 µM,,> 100 µM,,> 100 µM,> 100 µM,> 100 µM,> 100 µM,> 100 µM,> 100 µM,
Cc1ccc(N2C(=O)C3c4[nH]c5ccc(C)cc5c4C4CCC(C(C)(C)C)CC4C3C2=O)cc1 (stereo unspecified),,,> 100 µM,26.7 µM,8.06 µM,48.7 µM,39.7 µM,39.4 µM,33.2 µM,90.6 µM,70.1 µM
COc1ccccc1-n1nnc2c(N)nc(N)nc21,> 100 µM,,> 100 µM,> 100 µM,> 100 µM,> 100 µM,> 100 µM,> 100 µM,> 100 µM,> 100 µM,> 100 µM
O=Cc1ccc2ccocc1-2,> 100 µM,> 100 µM,> 100 µM,> 100 µM,> 100 µM,> 100 µM,> 100 µM,> 100 µM,> 100 µM,,> 100 µM
CNc1cc([N+](=O)[O-])ccc1C(=O)N1CCC[C@H]1CO,> 100 µM,,> 100 µM,> 100 µM,> 100 µM,> 100 µM,,> 100 µM,> 100 µM,> 100 µM,> 100 µM
CN(C)c1ccc(C=Nc2ccc(-c3nc4ccccc4s3)cc2)cc1,69 µM,44.5 µM,> 100 µM,,> 100 µM,> 100 µM,97.6 µM,51.2 µM,,> 100 µM,> 100 µM
CNC(=O)C(C)Oc1ccc(OCC2CCCCC2)cc1 (stereo unspecified),> 100 µM,,> 100 µM,,> 100 µM,> 100 µM,> 100 µM,> 100 µM,> 100 µM,> 100 µM,
ICC1CCCO1 (stereo unspecified),> 100 µM,> 100 µM,> 100 µM,,> 100 µM,> 100 µM,> 100 µM,,> 100 µM,> 100 µM,
Clc1cccc(-c2nc3cccc4c3n2Cc2ncccc2-4)c1,> 100 µM,> 100 µM,> 100 µM,> 100 µM,,> 100 µM,> 100 µM,> 100 µM,> 100 µM,> 100 µM,> 100 µM
